The NIST ThermoML archive (doi:10.1016/j.jct.2016.12.020)

Test: excess molar enthalpy (molar enthalpy of mixing); xn = mol fraction of the nth substance listed
Details: 100 kPa, Liquid, Calvet calorimetry

[Au] [gold] + [Ga]
excess molar enthalpy [kJ/mol]
Details | 1223 K | 1323 K
x1 = 0.03042 | -1.258 | –
x1 = 0.03979 | – | -1.68
x1 = 0.0642 | -2.624 | –
x1 = 0.07894 | – | -3.295
x1 = 0.09685 | -4.072 | –
x1 = 0.116 | – | -4.808
x1 = 0.1281 | -5.474 | –
x1 = 0.1512 | – | -6.244
x1 = 0.1606 | -6.786 | –
x1 = 0.1843 | – | -7.508
x1 = 0.1915 | -7.979 | –
x1 = 0.2172 | – | -8.724
x1 = 0.2205 | -8.949 | –
x1 = 0.2492 | -9.917 | -9.898
x1 = 0.2762 | -10.83 | –
x1 = 0.2785 | – | -10.86
x1 = 0.3018 | -11.66 | –
x1 = 0.3074 | – | -11.79
x1 = 0.3274 | -12.47 | –
x1 = 0.3345 | – | -12.61
x1 = 0.3516 | -13.19 | –
x1 = 0.3597 | – | -13.3
x1 = 0.3741 | -13.79 | –
x1 = 0.3836 | – | -13.89
x1 = 0.3958 | -14.24 | –
x1 = 0.4061 | – | -14.36
x1 = 0.4164 | -14.68 | –
x1 = 0.4283 | – | -14.77
x1 = 0.4363 | -15.01 | –
x1 = 0.449 | – | -15.12
x1 = 0.4553 | -15.33 | –
x1 = 0.4692 | – | -15.46
x1 = 0.4737 | -15.62 | –
x1 = 0.4871 | -15.83 | –
x1 = 0.4882 | – | -15.7
x1 = 0.4991 | – | -15.88
x1 = 0.5003 | -15.96 | –
x1 = 0.5096 | – | -16
x1 = 0.5139 | -16.01 | –
x1 = 0.5203 | – | -16.1
x1 = 0.527 | -16.06 | –
x1 = 0.5307 | – | -16.2
x1 = 0.5395 | -16.11 | –
x1 = 0.5412 | – | -16.2
x1 = 0.5514 | – | -16.3
x1 = 0.5515 | -16.2 | –
x1 = 0.5621 | – | -16.3
x1 = 0.5631 | -16.2 | –
x1 = 0.5727 | – | -16.3
x1 = 0.5743 | -16.2 | –
x1 = 0.5829 | – | -16.3
x1 = 0.585 | -16.2 | –
x1 = 0.5927 | – | -16.3
x1 = 0.5953 | -16.2 | –
x1 = 0.6028 | – | -16.2
x1 = 0.6053 | -16.2 | –
x1 = 0.6129 | – | -16.2
x1 = 0.6147 | -16.2 | –
x1 = 0.6231 | – | -16.1
x1 = 0.6239 | -16.2 | –
x1 = 0.6306 | -16.2 | –
x1 = 0.637 | -16.1 | –
x1 = 0.6431 | -16 | –

[Ag] [silver] + [Ga]
Details | excess molar enthalpy [kJ/mol]
1223 K, x1 = 0.04915 | 0.215
1223 K, x1 = 0.0956 | 0.259
1223 K, x1 = 0.1383 | 0.305
1223 K, x1 = 0.1792 | 0.285
1223 K, x1 = 0.2178 | 0.263
1223 K, x1 = 0.2552 | 0.126
1223 K, x1 = 0.2905 | -0.009
1223 K, x1 = 0.3228 | -0.21
1223 K, x1 = 0.3528 | -0.401
1223 K, x1 = 0.3809 | -0.585
1223 K, x1 = 0.4081 | -0.807
1223 K, x1 = 0.4336 | -1.05
1223 K, x1 = 0.4572 | -1.29
1223 K, x1 = 0.4789 | -1.45
1223 K, x1 = 0.4992 | -1.63
1223 K, x1 = 0.5189 | -1.87
1223 K, x1 = 0.5372 | -2.07
1223 K, x1 = 0.5548 | -2.24
1223 K, x1 = 0.5712 | -2.4
1323 K, x1 = 0.05283 | 0.223
1323 K, x1 = 0.1006 | 0.415
1323 K, x1 = 0.1464 | 0.469
1323 K, x1 = 0.1894 | 0.449
1323 K, x1 = 0.2288 | 0.409
1323 K, x1 = 0.2649 | 0.354
1323 K, x1 = 0.2996 | 0.217
1323 K, x1 = 0.3321 | 0.025
1323 K, x1 = 0.3634 | -0.217
1323 K, x1 = 0.3921 | -0.397
1323 K, x1 = 0.4189 | -0.602
1323 K, x1 = 0.4443 | -0.828
1323 K, x1 = 0.4687 | -0.949
1323 K, x1 = 0.4964 | -1.15
1323 K, x1 = 0.5168 | -1.31
1323 K, x1 = 0.5359 | -1.44
1323 K, x1 = 0.5558 | -1.61
